Holding throughout (assay type): cell-based
In assay [1] the test system is A549 cells. Nature of the assay: QRT-PCR assay for stem cell transcription factors. The conditions noted are these: 72 hours. The protocol:
(§1) Given the effects of HDAC11 inhibition on stem-like side population cells, the effects on the expression of stem cell transcription factors was determined using QRT-PCR. A549 or H1650 cells were plated in 60 mm cell culture dishes (120,000 cells). The next day, HDAC11 inhibitors were added at various concentrations and incubated for 72 hours. For the siRNA experiments, A549 cells were plated in 60 mm cell culture dishes (120,000 cells per dish). The siRNAs (Santa Cruz Biotechnologies sc-106896 or ThermoFisher Scientific Cat#4392420) were transfected at a concentration of 100 and 150 pmoles into cells using Oligofectamine reagent (Invitrogen) as per manufacturer's protocol. A non-targeting siRNA (Ambion AM4635) was used as a control for all the transfection experiments. The cells were harvested after 72 hours post transfection. At the end of the treatments, cells were scraped, lysed and total RNA was isolated by RNeasy miniprep kit from Qiagen following the manufacturer's protocol (RNeasy mini kit Cat No. 74104). 1 μg of RNA was converted into cDNA using iScript cDNA synthesis kit (BioRad) in a 20 μl total reaction volume. Levels of mRNA were further analyzed using quantitative real time-PCR (qRT-PCR) that was performed in CFX96 Real time system using BioRad iQ SYBR Green supermix. The reaction was set with 5 μl of SYBR Green, 1 μl of 1 μM Forward primer, 1 μl of 1 μM Reverse primer, 0.5 μl of cDNA and 4.5 μl of water in a total 12 μl reaction. Data was normalized using GAPDH as an internal control and fold change was calculated by 2^−Delta-DeltaCt method. First the Delta-Ct was calculated (Delta-Ct=Ct Gene−Ct GAPDH). Next Delta-Delta-Ct was calculated (Delta-Delta-Ct=Delta-Ct treatment−Delta-Ct control). Finally fold change was calculated by 2^−Delta-DeltaCt.

Another assay relates to H1650 cells. Nature of the assay: QRT-PCR assay for stem cell transcription factors. The conditions noted are these: 72 hours. The protocol: as §1
Assay [2] deals with STAT3 and STAT5 phosphorylation in HEL 92.1.7 cells. Description: STAT3 and STAT5 phosphorylation western blot assay. As for the experimental part: The effects of selective HDAC11 inhibition on STAT3 and STAT3 phosphorylation in HEL 92.1.7 cells were determined by western blot. Cells were treated with HDAC11 inhibitors and lysed in RIPA buffer (Sigma-Aldrich, St. Louis, Mo.) supplemented with protease inhibitors (Roche, Basel, Switzerland) and phosphatase inhibitors (Sigma P5726). Protein concentrations were determined with Pierce BCA protein assay kit (Thermo Fisher Scientific, Waltham, Mass.). Proteins were separated on a 4-12% Bis-Tris gradient electrophoresis gel (Life Technologies, Carlsbad, Calif.) and transferred onto a nitrocellulose membrane. The membrane was then blocked in either 5% nonfat dry milk or 5% BSA followed by incubation with primary antibodies at 4° C. overnight. Antibodies for p-STAT5 (Abcam 32364), STAT5 (Cell Signaling 9358), p-STAT3 (Cell Signaling 9145) and STAT3 (Cell Signaling 9139) were used. β-actin was used as loading control.

In assay [3] the test system is NCI-H1650 side population (SP) stem-like cells. Description: Sphere formation assay with stem-like side population NSCLC cells. The conditions noted are these: H1650 (EGFR mutation), 0.5-5.0 μM, Day 10. The protocol:
(§2) In order to investigate the role of HDAC11 in the self-renewal of stem-like cancer cells, sphere formation assays were conducted with NSCLC side population (SP) stem-like cells. A549 and NCI-H1650 cells were obtained from the ATCC. Asynchronously growing A549 or NCI-H1650 cells were washed once with phosphate buffered saline (PBS) and harvested using Accutase solution (Sigma Aldrich) and resuspended in DMEM-F12K medium (Gibo, Life Technologies) with 2% fetal bovine serum (FBS) at 1×10^6 cells/ml density. The cells were incubated with 4 μg/ml of Hoechst 33342 dye (Life Technologies) for 90 min at 37° C. in the presence or absence of 1 μM Fumitremorgin C (Sigma-Aldrich) which was used as a control sample to set the gate during sorting. The Hoechst stained cells were sorted using the BD FACSAria cell sorter. The sorted SP cells were plated in 96-well ultra-low adherent plate (Corning Inc) at the cell density of 1000 cells/100 μl/well in stem cell selective medium (DMEM:F12K supplemented with N2 supplement, 10 ng/mL epidermal growth factor (EGF) and 10 ng/ml basic fibroblast growth factor (bFGF) (Sigma-Aldrich) at 37° C. for 7-10 days. The spheres were observed and acquired using EVOS FL microscope system (Life Technologies Inc., USA). The numbers of spheres greater than or equal to 50 μm were counted. To study the effect of the HDAC11 inhibitors, the appropriate concentrations of the compounds were added to the wells on Day 0 and Day 5 and the image acquisition and analysis of the spheres were performed on Day 10. The sphere formation assays were performed twice with triplicates of each treatment in every assay.

For assay [4], the system named is A549 side population (SP) stem-like cells. The description is as above. As to conditions: A549 (KRAS mutation), 0.5-5.0 μM, Day 10. The protocol: as §2
Another assay relates to NCI-H2170 cells. Description: Cell proliferation assay with combination treatment (MTT). As to conditions: H2170, combination with GDC-0449 (Vismodegib) or BMS-833923, 96 hours. As for the experimental part:
(§3) Selective HDAC11 inhibitors may be useful in combination with other targeted agents, including Jak2 inhibitors and Smoothened inhibitors. The effect of combination with the Smoothened inhibitors GDC-0449 (Vismodegib) and BMS-833923 was tested in lung cancer cell lines. A549 and NCI-H2170 cells were obtained from the ATCC. H2170 is a squamous carcinoma cell line. Cell viability was assessed using MTT reagent (Thiazolyl Blue Tetrazolium Bromide) (Sigma-Aldrich). The cells were grown in 96-well plates at a density of 3000-5000 cells/well in triplicates. The HDAC11 inhibitors were added to the adherent cells at different concentrations and treatment was carried out for 96 hours. After treatments, the cells were incubated with the 1 mg/mL MTT reagent at 37° C. for 1 hour. The reaction was terminated with DMSO that solubilizes the formazan product formed. Absorbance at 590 nm was recorded in a plate reader.

Assay [5] has as its system A549 cells. Described as above. The conditions noted are these: A549, combination with GDC-0449 (Vismodegib) or BMS-833923, 96 hours. As for the experimental part:
as §3

SMILES strings stand for the structures.

As for `O=C(NO)c1cccc(Nc2nc3cc(Cl)c(Cl)cc3o2)c1` [HDTK010, 3-((5,6-dichlorobenzo[d]oxazol-2-yl)amino)-N-hydroxybenzamide], the “expression of Gli1 (mRNA)” value in the assay on A549 cells [1] and in the assay on H1650 cells was “decreased expression” each time. The “expression of Sox2 (mRNA)” value in the assay with A549 cells [1] and in the assay on H1650 cells was “decreased expression” throughout. The “expression of Yap1 (mRNA)” value in the assay with A549 cells [1] and with H1650 cells was “decreased expression” in each case. In assay [2], the STAT3 phosphorylation entry is recorded as “inhibited”. In assay [2], the STAT5 phosphorylation result is “inhibited”. Besides, the “growth of stem-like cancer cells (sphere formation)” value in assay [3] and in assay [4] was “prevented growth” each time. Further, the “cell viability, combination with Smoothened inhibitors” value in the assay with NCI-H2170 cells and with A549 cells [5] was “decreased cell viability” throughout.

With `O=C(NO)c1cccc2c1C[C@]1(CCN(Cc3ccc(Cl)c(C(F)(F)F)c3)C1=O)C2` [HDTK054, (S)-1′-(4-chloro-3-(trifluoromethyl)benzyl)-N-hydroxy-2′-oxo-1,3-dihydrospiro[indene-2,3′-pyrrolidine]-4-carboxamide], the “expression of Gli1 (mRNA)” value in the assay with A549 cells [1] and with H1650 cells was “decreased expression” throughout. In addition, the “expression of Sox2 (mRNA)” value in the assay on A549 cells [1] and in the assay on H1650 cells was “decreased expression” throughout. Further, the “expression of Yap1 (mRNA)” value with A549 cells [1] and with H1650 cells was “decreased expression” in each case. For the same molecule, the “growth of stem-like cancer cells (sphere formation)” value in assay [3] and in assay [4] was “prevented growth” throughout. In addition, the “cell viability, combination with Smoothened inhibitors” value with NCI-H2170 cells and with A549 cells [5] was “decreased cell viability” throughout.

For the origin of these results see patent publication US10538496B2, “Methods using HDAC11 inhibitors” (FORMA Therapeutics, Inc., priority 2016, dated 2020).
